Source: patent US10953012B2, “Heterocyclic compounds for the inhibition of pask” (BioEnergenix LLC, priority 2011, dated 2021)

What follows are compounds tested against PASK (Homo sapiens (Human), UniProt Q96RG2) (assay: PAS Kinase FRET Assay). Conditions: TR-FRET assay; read-out: IC50 Kinase Domain.
Assay type: biochemical
Description: The aim of the FRET assay is to determine the inhibition potential of test compounds on targeted kinase. This assay platform provides a homogenous screening method for measuring kinase activity by quantitating the amount of phospho-substrate in solution following a kinase reaction.
In the presence of kinase and ATP, the Ulight-peptide is phosphorylated and captured by an anti-phospho-substrate antibody, which brings the Eu chelate donor and Ulight acceptor dyes into close proximity. Upon excitation at 340 nm, the Eu chelate transfers its energy to the Ulight dye, resulting in a fluorescent light emission at 665 nm
Titration of kinase at 1 mM ATP was achieved via the following protocol. After making serial three-fold dilutions of PASK (Invitrogen) in reaction buffer across the plate; 5 μl of kinase dilution and 5 μl substrate/ATP mix were added to the wells of the white Optiplate-384 (PerkinElmer). The contents of the plate were and incubated at RT for 1 h. The reaction was stopped by adding 5 μl of stop solution to each test well followed by mixing and incubation at RT for 10 minutes. 5 μl of detection mix (detection antibody diluted in detection buffer) was added; the contents of the plate were mixed and then incubated in the dark for 1 hour at RT. The signal was recorded at TR-FRET mode (665 nm/615 nm). The results were graphed to calculate the EC50.
Titration of ATP at the EC50 concentration of kinase to determine ATP Km, app. was performed using the following method. After making serial dilutions of ATP (Invitrogen), 5 μl of ATP dilution and 5 μl substrate/kinase mix were added to the wells of the white Optiplate-384 (PerkinElmer). The contents of the plate were and incubated at RT for 1 h. The reaction was stopped by adding 5 μl of stop solution to each test well followed by mixing and incubation at RT for 10 minutes. 5 μl of detection mix (detection antibody diluted in detection buffer) was added; the contents of the plate were mixed and then incubated in the dark for 1 hour at RT. The signal was recorded at TR-FRET mode (665 nm/615 nm). The results were graphed to calculate the EC50 as the ATP Km, app.
Compound screening was done via the following method. 10 mM stock solution of test compound in DMSO was prepared by dissolving test compound in DMSO at RT for 1 hour, and then sonicating at 100% output for 8 minutes. If compound is not soluble under this condition, it was diluted to 3 mM. Kinase reaction buffer was prepared containing 10 mM MgCl2, 50 mM HEPES, 1 mM EGTA, 0.01% TWEEN-20, 2 mM DTT. Serial dilutions of the test compounds were prepared at 4×final assay concentrations using Freedom EVO200® dispensing system as follows: 12×10^−5 M, 4×10^−5 M, 1.33×10^−5 M, 4.44×10^−6 M, 1.48×10^−6 M, 4.92×10^−7 M, 1.65×10^−7 M, […], 1.82×10^−8M, 6.09×10^−9, 2.03×10^−9 M. Test compounds (2.5 μl at 4× the final assay concentration) was added to wells using Freedom EVO200® dispensing system. As a positive control, 2.5 μl of positive compound was added to assay wells, and 2.5 μl of DMSO to assay wells as vehicle control. Kinase solution was prepared in reaction buffer at 2×final assay concentration. Kinase solution (5 μl) was added to each well of the assay plate. The substrate and ATP solution was prepared in kinase reaction buffer at 4×final assay concentration. The kinase reaction was started by adding 2.5 μl of substrate+ATP mix solution to each well of the assay plate. The plate is mixed on a plate shaker; then covered and allowed to react for 2 hours in the dark at 25° C. without shaking. The reaction was stopped by adding 5 μl of stop solution to each test well followed by mixing and incubation at RT for 10 minutes in the dark. 5 μl of detection mix (detection antibody diluted in detection buffer) was added; the contents of the plate were mixed and then incubated in the dark for 1 hour at RT. The signal was recorded at TR-FRET mode (665 nm/615 nm).

Sequence of PASK (Q96RG2 999-1251): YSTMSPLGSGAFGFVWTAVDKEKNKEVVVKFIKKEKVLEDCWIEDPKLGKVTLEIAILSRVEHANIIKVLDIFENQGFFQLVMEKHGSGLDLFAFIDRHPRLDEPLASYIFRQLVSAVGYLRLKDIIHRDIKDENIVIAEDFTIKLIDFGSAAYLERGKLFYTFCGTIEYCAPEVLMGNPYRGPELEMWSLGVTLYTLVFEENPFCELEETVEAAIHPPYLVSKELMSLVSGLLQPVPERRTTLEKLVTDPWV

IC50, ≤ 10 µM:
Cc1cc2cc(-c3cc(=O)n4ncc(-c5ccccn5)c4[nH]3)ccc2o1 [Example 169, 5-(2-Methylbenzofuran-5-yl)-3-(pyridin-2-yl)pyrazolo[1,5-a]pyrimidin-7(4H)-one]
Cc1cc2cc(-c3cc(=O)n4nc(N)c(-c5ccccn5)c4[nH]3)ccc2o1 [Example 170, 2-Amino-5-(2-methylbenzofuran-5-yl)-3-(pyridin-2-yl)pyrazolo[1,5-a]pyrimidin-7(4H)-one]
Nc1nn2c(=O)cc(-c3ccc(C(F)(F)F)cc3)[nH]c2c1-c1ccccn1 [Example 172, 2-amino-3-(pyridin-2-yl)-5-(4-(trifluoromethyl)phenyl)pyrazolo[1,5-a]pyrimidin-7(411)-one]
O=c1cc(-c2ccc(C(F)(F)F)cc2)[nH]c2c(-c3ccccn3)cnn12 [Example 173, 3-(Pyridin-2-yl)-5-(4-(trifluoromethyl)phenyl)pyrazolo[1,5-a]pyrimidin-7(4H)-one]
Nc1nn2c(=O)cc(-c3cccc(F)c3)[nH]c2c1-c1ccccn1 [Example 174, 2-Amino-5-(3-fluorophenyl)-3-(pyridin-2-yl)pyrazolo[1,5-a]pyrimidin-7(4H)-one]
O=c1cc(-c2cccc(F)c2)[nH]c2c(-c3ccccn3)cnn12 [Example 175, 5-(3-Fluorophenyl)-3-(pyridin-2-yl)pyrazolo[1,5-a]pyrimidin-7(4H)-one]
Nc1nn2c(=O)cc(-c3ccc(F)cc3F)[nH]c2c1-c1ccccn1 [Example 176, 2-Amino-5-(2,4-difluorophenyl)-3-(pyridin-2-yl)pyrazolo[1,5-a]pyrimidin-7(4H)-one]
O=c1cc(-c2ccc(F)cc2F)[nH]c2c(-c3ccccn3)cnn12 [Example 177, 5-(2,4-Difluorophenyl)-3-(pyridin-2-yl)pyrazolo[1,5-a]pyrimidin-7(4H)-one]
CCCNC(=O)c1c(N)nn2c(=O)cc(-c3ccc4c(c3)OCO4)[nH]c12 [Example 178, 2-Amino-5-(benzo[d][1,3]dioxol-5-yl)-7-oxo-N-propyl-4,7-dihydropyrazolo[1,5-a]pyrimidine-3-carboxamide]
CCC(=O)Nc1nn2c(=O)cc(-c3ccc4c(c3)OCO4)[nH]c2c1-c1ccccn1 [Example 180, N-(5-(Benzo[d][1,3]dioxol-5-yl)-7-oxo-3-(pyridin-2-yl)-4,7-dihydropyrazolo[1,5-a]pyrimidin-2-yl)propionamide]
CC(C)C(=O)Nc1nn2c(=O)cc(-c3ccc4c(c3)OCO4)[nH]c2c1-c1ccccn1 [Example 181, N-(5-(Benzo[d][1,3]dioxol-5-yl)-7-oxo-3-(pyridin-2-yl)-4,7-dihydropyrazolo[1,5-a]pyrimidin-2-yl)isobutyramide]
CC(=O)Nc1nn2c(=O)cc(-c3ccc4[nH]ncc4c3)[nH]c2c1-c1ccccn1 [Example 182, N-(5-(1H-Indazol-5-yl)-7-oxo-3-(pyridin-2-yl)-4,7-dihydropyrazolo[1,5-a]pyrimidin-2-yl)acetamide]
CCc1nn2c(=O)cc(-c3ccc4[nH]ncc4c3)[nH]c2c1-c1ccccn1 [Example 183, 2-Ethyl-5-(1H-indazol-5-yl)-3-(pyridin-2-yl)pyrazolo[1,5-a]pyrimidin-7(4H)-one]
Cn1ncc2cc(-c3cc(=O)n4nc(N)c(-c5ccccn5)c4[nH]3)ccc21 [Example 184, 2-Amino-5-(1-methyl-1H-indazol-5-yl)-3-(pyridin-2-yl)pyrazolo[1,5-a]pyrimidin-7(4H)-one]
Cc1nn2c(=O)cc(-c3ccc4[nH]nnc4c3)[nH]c2c1Cc1ccccc1 [Example 185, 5-(1H-Benzo[d][1,2,3]triazol-5-yl)-3-benzyl-2-methylpyrazolo[1,5-a]pyrimidin-7(4H)-one]
Cn1ncc2cc(-c3cc(=O)n4ncc(-c5ccccn5)c4[nH]3)ccc21 [Example 186, 5-(1-Methyl-1H-indazol-5-yl)-3-(pyridin-2-yl)pyrazolo[1,5-a]pyrimidin-7(4H)-one]
O=c1cc(-c2ccc3[nH]ncc3c2)[nH]c2c(-c3ccccn3)c(O)nn12 [Example 187, 2-Hydroxy-5-(1H-indazol-5-yl)-3-(pyridin-2-yl)pyrazolo[1,5-a]pyrimidin-7(4H)-one]
Cc1n[nH]c2ccc(-c3cc(=O)n4nc(N)c(-c5ccccn5)c4[nH]3)cc12 [Example 188, 2-Amino-5-(3-methyl-1H-indazol-5-yl)-3-(pyridin-2-yl)pyrazolo[1,5-a]pyrimidin-7(4H)-one]
Cc1n[nH]c2ccc(-c3cc(=O)n4ncc(-c5ccccn5)c4[nH]3)cc12 [Example 189, 5-(3-Methyl-1H-indazol-5-yl)-3-(pyridin-2-yl)pyrazolo[1,5-a]pyrimidin-7(4H)-one]
CCc1nn2c(=O)cc(-c3ccc(Cl)cc3)[nH]c2c1-c1ccccn1 [Example 190, 5-(4-Chlorophenyl)-2-ethyl-3-(pyridin-2-yl)pyrazolo[1,5-a]pyrimidin-7(4H)-one]
O=c1cc(-c2ccc3[nH]nnc3c2)[nH]c2c(-c3ccccn3)cnn12 [Example 192, 5-(1H-Benzo[d][1,2,3]triazol-5-yl)-3-(pyridin-2-yl)pyrazolo[1,5-a]pyrimidin-7(4H)-one]
Cn1nnc2cc(-c3cc(=O)n4nc(N)c(-c5ccccn5)c4[nH]3)ccc21 [Example 194, 2-Amino-5-(1-methyl-1H-benzo[d][1,2,3]triazol-5-yl)-3-(pyridin-2-yl)pyrazolo[1,5-a]pyrimidin-7(4H)-one]
Cn1nnc2cc(-c3cc(=O)n4ncc(-c5ccccn5)c4[nH]3)ccc21 [Example 195, 5-(1-Methyl-1H-benzo[d][1,2,3]triazol-5-yl)-3-(pyridin-2-yl)pyrazolo[1,5-a]pyrimidin-7(4H)-one]
CCc1nn2c(=O)cc(-c3ccc4c(cnn4C)c3)[nH]c2c1-c1ccccn1 [Example 196, 2-Ethyl-5-(1-methyl-1H-indazol-5-yl)-3-(pyridin-2-yl)pyrazolo[1,5-a]pyrimidin-7(4H)-one]
Cc1nn2c(=O)cc(-c3ccc4[nH]nnc4c3)[nH]c2c1-c1ccccn1 [Example 200, 5-(1H-Benzo[d][1,2,3]triazol-5-yl)-2-methyl-3-(pyridin-2-yl)pyrazolo[1,5-a]pyrimidin-7(4H)-one]
CC(=O)Nc1nn2c(=O)cc(-c3ccc4[nH]nnc4c3)[nH]c2c1-c1ccccn1 [Example 202, N-(5-(1H-Benzo[d][1,2,3]triazol-5-yl)-7-oxo-3-(pyridin-2-yl)-4,7-dihydropyrazolo[1,5-a]pyrimidin-2-yl)acetamide]
CCC(=O)Nc1nn2c(=O)cc(-c3ccc4nn[nH]c4c3)[nH]c2c1-c1ccccn1 [Example 203, N-(5-(1H-Benzo[d][1,2,3]triazol-6-yl)-7-oxo-3-(pyridin-2-yl)-4,7-dihydropyrazolo[1,5-a]pyrimidin-2-yl)propionamide]
CCn1ncc2cc(-c3cc(=O)n4nc(NC(C)=O)c(-c5ccccn5)c4[nH]3)ccc21 [Example 204, N-(5-(1-Ethyl-1H-indazol-5-yl)-7-oxo-3-(pyridin-2-yl)-4,7-dihydropyrazolo[1,5-a]pyrimidin-2-yl)acetamide]
CCc1nn2c(=O)cc(-c3ccc4[nH]nnc4c3)[nH]c2c1-c1ccccc1 [Example 206, 5-(1H-Benzo[d][1,2,3]triazol-5-yl)-2-ethyl-3-phenylpyrazolo[1,5-a]pyrimidin-7(4H)-one]
